Test in all cases: inhibition of tumour cell growth, NCI panel, 48 h
For assay [1], the system named is HOP-92 NSCLC.
In assay [2] the test system is OVCAR-8 ovarian.
Assay [3] deals with SF-295 CNS.
In assay [4] the test system is EKVX NSCLC.
The test system of assay [5] is 786-0 renal.
In assay [6] the test system is ACHN renal.
The test system of assay [7] is HL-60(TB) leukemia.
For assay [8], the system named is UACC-62 melanoma.
The test system of assay [9] is KM12 colon.
Assay [10] concerns SK-MEL-5 melanoma.

Structures are written as SMILES. Where “and” joins values, the source holds several entries; their conditions need not be identical. Equal entries are not always repeated.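 Growth conditions: 96-well plates. Treatment: test compound, 48 hours, 5 concentrations. Analysis: linear interpolation between bracketing concentrations; unreached endpoints set to highest concentration. Abbreviation: GI50, concentration required for 50% inhibition of growth. TGI marks complete inhibition of growth.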 A value given as a limit tells only on which side of the number the result lay.

Consider `C/C=C(\C)C(=O)N[C@H]1C(O)C[C@]2(C)C3CC[C@@]4(C)C(CC[C@@H]4C(C)N(C)C)C3CCC2C1O` (stereo not given in full), for which the GI50 in assay [1] is 6.44 µM; in assay [2], 28.9 µM; in assay [3] it was 8.83 µM; in [4], 9.38 µM; in assay [5], 4.95 µM; in [6], 10.3 µM. Besides, the GI50 was 4.44 µM in [7], 2.18 µM in [8], 6.85 µM in assay [9] and 1650 nM in assay [10]. Further, the TGI in [1] was 33.4 µM; in assay [2], above 90.8 µM; in [3], 29 µM; in assay [4], above 50.9 µM; in [5] it was 10.6 µM; in assay [6], 43.4 µM. Moreover, the TGI is 16.9 µM in assay [7], 4.54 µM in [8], 25.8 µM in assay [9] and 3.46 µM in assay [10].
Turning to `CCN(CC)CCOc1ccc(C(=O)/C=C\c2ccc(Cl)cc2Cl)cc1`, the GI50 was 3.63 µM in assay [1]; 13.4 µM in assay [2]; 8.7 µM in assay [3]; 12.6 µM in [4]; 6.44 µM in [5]; 4.73 µM in assay [6]. Besides, the GI50 in assay [7] is 2.67 µM; in [8] it was 2.08 µM; in assay [9], 1.92 µM; in [10], 3140 nM. Moreover, the TGI in assay [1] came to 16.3 µM; in assay [2] it was 28.1 µM; in [3], 22.3 µM; in assay [4] it was 25.1 µM; in assay [5] it was 20.3 µM; in [6], 17.8 µM. The TGI turned out to be 6.25 µM in assay [7], 4.71 µM in assay [8], 4.16 µM in assay [9] and 12.3 µM in assay [10].
In the case of `COC(=O)CCC(=O)NC1C2CC3CC(C2)CC1C3` (stereo not given), the TGI in assay [1], in assay [2], in assay [3], in assay [4], in assay [5] and in [6] was above 100 µM each time. Besides, the TGI in [7], in assay [8], in assay [9] and in assay [10] was above 100 µM each time.
For `C[C@H]1C(=O)CC[C@]2(C)CCC(C(C)(C)O)CC12O` (stereo not given in full), the TGI in [1], in assay [2], in assay [3], in assay [4], in [5] and in [6] was above 100 µM in each case. Moreover, the TGI in assay [7], in assay [8], in assay [9] and in assay [10] was above 100 µM in each case.
As to `CN1C(Cl)=NS(=O)(=O)c2ccccc21`, the TGI in assay [1], in assay [2], in assay [3], in [4], in assay [5] and in assay [6] was above 100 µM in each case. Further, the TGI in assay [7], in assay [8], in [9] and in assay [10] was above 100 µM throughout.
Regarding `[Cl][Cd][Cl]`, the GI50 is > 80.2 µM and 15.2 µM in assay [1]; 119 µM in assay [2]; 76.4 µM in [3]; 24.7 µM and 9.95 µM in assay [4]; 21 µM and 8.67 µM in assay [5]; 77.7 µM in assay [6]. The GI50 in [7] was 39.4 µM and 18.6 µM; in [8], 5.02 µM and 20.2 µM and 7.81 µM; in [9], 17.9 µM and 9.62 µM; in assay [10] it was 1180 nM and 3620 nM and 518 nM. Further, the TGI in assay [1] was 35.3 µM; in [2], 272 µM; in assay [3] it was 155 µM; in [4], 52 µM and 19.9 µM; in assay [5] it was 44.4 µM and 17.6 µM; in assay [6], 162 µM. Further, the TGI is > 84.5 µM and 118 µM in assay [7]; 35.9 µM and 20.8 µM in assay [8]; 35.1 µM and 30.1 µM in [9]; 3.31 µM and 22.4 µM and 5.9 µM in assay [10].
For `CN(C)CCN1C(=O)c2cccc3cccc(c23)C1=O`, the GI50 was 14.8 µM in assay [1]; 13.2 µM in [2]; 11.1 µM in assay [3]; above 25 µM in assay [4]; 24 µM in assay [5]; 8.29 µM in assay [6]. Besides, the GI50 is 6.82 µM in assay [7], 18.1 µM in assay [8], 12.9 µM in assay [9] and 18400 nM in assay [10]. The TGI in assay [1], in assay [2], in assay [3], in assay [4], in [5] and in [6] was above 25 µM throughout. The TGI in assay [7], in [8], in assay [9] and in [10] was above 25 µM throughout.
For the compound `COc1ccc2c(c1OC)C(=O)c1cnccc1C2=O`, the TGI in assay [1], in assay [2], in assay [3], in assay [4], in [5] and in assay [6] was above 100 µM each time. Also, the TGI in [7], in assay [8], in [9] and in [10] was above 100 µM each time.
As for `Cc1cccc2c(N)c3ccccc3nc12`, the GI50 was 2.18 µM in assay [1]; 0.94 µM in assay [2]; 1.67 µM in assay [3]; 2.76 µM in assay [4]; 1.54 µM in [5]; 0.561 µM in assay [6]. Also, the GI50 is 2.41 µM in assay [7], 1.56 µM in [8], 1.78 µM in assay [9] and 1770 nM in assay [10]. Moreover, the TGI in assay [1] was 6.05 µM; in assay [2], 10.7 µM; in [3], 10.4 µM; in [4] it was 9.99 µM; in [5], 7.49 µM; in [6], 14.5 µM. Besides, the TGI came to 10.3 µM in [7], 4.6 µM in assay [8], 12.2 µM in assay [9] and 3.26 µM in assay [10].
